Results as given in paper PMC12562379, “Facile Synthesis of N-vinylindoles via Knoevenagel Condensation: Molecular Features and Biological Activities” (International Journal of Molecular Sciences, 2025).
Converted amounts (≈) assume the structure as drawn.

Columns and labels:
[1] = test system: HaCaT; assay: MTT assay, cytotoxic activity on non-cancerous keratinocytes; type: cell-based; settings: Homo sapiens, 24 h, n = 12
Method: (§1) The human ovarian SKOV-3, gastric adenocarcinoma AGS, cervical HeLa cell lines and non-cancerous keratinocytes HaCaT were obtained from the American Type Culture Collection (ATCC, Manassas, VA, USA). The cell lines were cultured in McCoy’s Medium, Dulbecco’s Modified Eagle’s Medium/F12, and DMEM, respectively (Merck Millipore, Burlington, MA, USA). Penicillin (100 units/mL), streptomycin ([…]), and 10% (v/v) fetal bovine serum (FBS) were added to all the media. The cells were incubated at 37 °C and 5% CO2.
(§2) To estimate the cytotoxic activity of the obtained compounds 2a-i, MTT assay was used. The cells (5 × 10^3 cells/well) were treated with the compounds in a range of concentrations 1–150 µg/mL. […] After 24 h, MTT solution (0.5 mg/mL) was added to the cells. Formazan crystals were dissolved in DMSO and the absorbance was measured with a microtiter plate reader (Epoch, BioTek Instruments, Winooski, VT, USA).

[2] = test system: HeLa, SKOV-3, AGS (and HaCaT) cell lines; assay: MTT assay, ranges stated over several cell lines; type: cell-based, human; settings: for IC50: Homo sapiens
Method: as §1, §2

[3] = test system: C. albicans ATCC 10231; assay: Microbroth dilution assay; type: cell-based, Candida albicans; settings: Candida albicans, ATCC10231, C. albicans ATCC 10231; for MFC: read-out: MFC; for MIC: read-out: MIC
Method: (§3) The minimum inhibitory concentration (MIC) and minimum bactericidal/fungicidal concentration (MBC/MFC) of the tested compounds were determined by the microbroth dilution technique using 96-well plates based on the methodology described in the EUCAST (European Committee on Antimicrobial Susceptibility Testing) standards. Reference and clinical strains of Gram-positive (Staphylococcus aureus ATCC 6538, Staphylococuccus aureus MRSA 6347) and Gram-negative (Escherichia coli ATCC 8739) bacteria, and yeast (Candida albicans ATCC 10231, Candida glabrata ATCC 2001) were used for the assay. The studies were carried out in the Mueller–Hinton (MH) broth for bacteria and RPMI 1640 broth + MOPS (Sigma-Aldrich, Poland) buffer in the case of yeast. The dry test samples were dissolved in DMSO (dimethyl sulfoxide), resulting in a final concentration of 15 mg/mL, and then diluted in a geometric progression. Ampicillin (Sigma-Aldrich, Poland) acted as a control sample (512 to 4 µg/mL) for bacteria and ketoconazole (128 to 1 µg/mL) (Sigma-Aldrich, Poland) acted as a control sample for yeast. The cultures of microorganisms were prepared by transferring cells from the stock cultures to tubes with the appropriate broth and incubated with agitation in an aerobic atmosphere for 18 ± 2 h at 35 ± 1 °C; next, they were diluted to achieve an optical density corresponding to 5 × 105 (bacteria) or 2 × 105 (yeast) colony-forming units per mL (cfu/mL). An appropriate media (96 µL), along with the tested compounds with a final concentration range of 300–3.1 µg/mL (4 µL) and next microbial suspension (100 µL) were added to each well. Plates with samples were incubated in adequate conditions described above and microbial growth was assessed. […] (>90%; ketoconazole) but 50% (for other compounds) inhibits visible growth of yeasts. Next, as a control of microbial viability, 100 µL of the samples from each well without growth was inoculated on the MH or RPMI agar plates and incubated for 18 ± 2 h at 35 ± 1 °C and finally, the CFU was counted. The MBC/MFC was determined as the minimum concentration of compounds required to kill 99.9% the organisms.

[4] = test system: S. aureus MRSA 12673; assay: Microbroth dilution assay; type: cell-based; settings: Staphylococcus aureus, S. aureus MRSA 12673; for MIC: read-out: MIC
[5] = test system: C. glabrata ATCC 2001; assay: Microbroth dilution assay; type: cell-based, Candida glabrata; settings: Nakaseomyces glabratus, ATCC2001
Method: as §3

[6] = test system: S. aureus ATCC 6535; assay: Microbroth dilution assay; type: cell-based; settings: Staphylococcus aureus, ATCC6535
[7] = biological target: T1, AGE2-BSA/sRAGE interaction (Homo sapiens, UniProt Q15109); assay: ELISA AGE2-BSA/sRAGE inhibitory screening; type: binding
T1 construct: purchased Creative BioMart
T1 sequence (Q15109 23-342 limits assumed): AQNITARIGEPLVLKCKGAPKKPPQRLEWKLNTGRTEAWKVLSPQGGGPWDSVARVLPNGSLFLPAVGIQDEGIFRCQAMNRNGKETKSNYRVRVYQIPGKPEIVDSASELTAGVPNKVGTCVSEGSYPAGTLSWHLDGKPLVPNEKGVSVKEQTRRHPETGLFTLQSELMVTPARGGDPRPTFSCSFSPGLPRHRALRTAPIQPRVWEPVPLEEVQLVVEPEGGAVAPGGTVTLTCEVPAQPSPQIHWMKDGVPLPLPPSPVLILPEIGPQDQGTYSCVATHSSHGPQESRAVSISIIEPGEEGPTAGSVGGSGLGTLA
Method: The in vitro inhibitor screening of AGE2 (glyceraldehyde-modified AGE)-sRAGE interaction (soluble RAGE) was performed using a 96-well AGE-BSA-coated plate (Creative BioMart® ELISA kit, Shirley, NY, USA), according to the manufacturer’s instructions. 100 UA/mL soluble RAGE (sRAGE) was incubated with 100 μM of the tested compounds or 0.05% DMSO as a negative control on an AGE2-BSA-coated plate at room temperature for 60 min, shaking at 300 rpm on an orbital microplate shaker. After incubation, the wells were washed 4 times with wash buffer and horseradish peroxidase (HRP)-labeled anti-RAGE antibody was added and the plate was further incubated at room temperature for 60 min, shaking at 300 rpm on an orbital microplate shaker. After incubation, the wells were washed 4 times with wash buffer and the Substrate Reagent was added to each well. After an incubation at room temperature for 5 min, the HRP-labeled antibody sRAGE-AGE complex was then detected by measuring the absorbance at 450 nm using the microplate reader Varioskan (Thermo Fischer Scientific). These experiments were repeated two times.

[8] = test system: E. coli ATCC 8739; assay: Microbroth dilution assay; type: cell-based; settings: Escherichia coli, ATCC8739, E. coli ATCC 8739; for MIC: read-out: MIC
Method: as §3

[9] = test system: HeLa; assay: MTT assay, cytotoxic activity; type: cell-based, human; settings: 24 h, n = 12; for IC50: Homo sapiens
Method: as §1, §2

[10] = test system: SKOV-3; assay: MTT assay, cytotoxic activity; type: cell-based, human; settings: SKOV-3, MTT, 24 h, n = 12; for IC50: Homo sapiens, SK-OV-3
Method: as §1, §2

[11] = test system: AGS; assay: MTT assay, cytotoxic activity; type: cell-based, human; settings: 24 h, n = 12; for IC50: Homo sapiens
Method: as §1, §2

[12] = range over the cancer cell lines HeLa, SKOV-3 and AGS
[13] = range over HeLa and SKOV-3 cell lines

| MIC [3] [µg/mL] | MIC [4] [µg/mL] | MIC [5] [µg/mL] | MIC [6] [µg/mL] | inhibition at 100 µM [7] [%] | MIC [8] [µg/mL] | SMILES | IC50 [1] [µg/mL] | IC50 [2, 12] [µg/mL] | MFC [3] [µg/mL] | MBC [4] [µg/mL] | MFC [5] [µg/mL] | MBC [6] [µg/mL] | MBC [8] [µg/mL] | IC50 [9] [µg/mL] | IC50 [10] [µg/mL] | IC50 [11] [µg/mL] | further results |
| --- | --- | --- | --- | --- | --- | --- | --- | --- | --- | --- | --- | --- | --- | --- | --- | --- | --- |
| > 240 | 120 (≈ 393 µM) | > 240 | 120 (≈ 393 µM) | 12 | 240 (≈ 786 µM) | Fc1ccc(/C=C(/C2=NCCN2)n2ccc3ccccc32)cc1 [Compound 2d, (Z)-1-[1-(4,5-dihydro-1H-imidazol-2-yl)-2-(4-fluorophenyl)vinyl]-1H-indole] | 7.37 ± 0.28 (≈ 24.1 µM) | 8.65 to 15.5 (≈ 28.3 to 50.7 µM) | > 240 | > 240 | > 240 | 240 (≈ 786 µM) | > 240 | 8.65 ± 0.68 (≈ 28.3 µM) | 10.2 ± 0.45 (≈ 33.6 µM) | 15.5 ± 0.72 (≈ 50.7 µM) | – |
| > 220 | > 220 | > 220 | 110 (≈ 347 µM) | – | 220 (≈ 693 µM) | COc1ccc(/C=C(/C2=NCCN2)n2ccc3ccccc32)cc1 [Compound 2c, (Z)-1-[1-(4,5-dihydro-1H-imidazol-2-yl)-2-(4-methoxyphenyl)vinyl]-1H-indole] | 9.11 ± 1.58 (≈ 28.7 µM) | – | > 220 | > 220 | > 220 | 110 (≈ 347 µM) | > 220 | 7.86 ± 0.59 (≈ 24.8 µM) | 8.8 ± 0.46 (≈ 27.7 µM) | 10.29 ± 0.08 (≈ 32.4 µM) | – |
| 120 (≈ 373 µM) | 60 (≈ 186 µM) | 240 (≈ 746 µM) | 30 (≈ 93.2 µM) | 34.7 | 120 (≈ 373 µM) | Clc1ccc(/C=C(/C2=NCCN2)n2ccc3ccccc32)cc1 [Compound 2e, (Z)-1-[2-(4-chlorophenyl)-1-(4,5-dihydro-1H-imidazol-2-yl)vinyl]-1H-indole] | 3.43 ± 0.05 (≈ 10.7 µM) | – | 240 (≈ 746 µM) | 240 (≈ 746 µM) | 240 (≈ 746 µM) | 60 (≈ 186 µM) | 240 (≈ 746 µM) | 3.13 ± 0.3 (≈ 9.73 µM) | 4.4 ± 0.16 (≈ 13.7 µM) | 11.4 ± 0.74 (≈ 35.3 µM) | IC50 [2, 13]: 3.13 to 4.4 µg/mL (≈ 9.73 to 13.7 µM) |
| > 220 | 220 (≈ 766 µM) | > 220 | 110 (≈ 383 µM) | – | 220 (≈ 766 µM) | C(=C(\C1=NCCN1)n1ccc2ccccc21)/c1ccccc1 [Compound 2a, (Z)-1-[1-(4,5-dihydro-1H-imidazol-2-yl)-2-(phenyl)vinyl]-1H-indole] | 11.7 ± 1.31 (≈ 40.7 µM) | – | > 220 | > 220 | > 220 | 220 (≈ 766 µM) | 220 (≈ 766 µM) | 8.96 ± 0.33 (≈ 31.2 µM) | 9.81 ± 0.45 (≈ 34.1 µM) | 17.2 ± 0.68 (≈ 60 µM) | – |
| – | – | – | – | – | – | O=C1[O][Pt]2([NH][C@@H]3CCCC[C@H]3[NH]2)[O]C1=O [Oxaliplatin, reference compound] | – | – | – | – | – | – | – | – | – | – | IC50 (range over cell lines) [2, 13]: 35.76 to 102.16 µg/mL; IC50 ± SD [9]: 35.76 ± 1.72 µg/mL; IC50 ± SD [10]: 102.16 ± 9.26 µg/mL; IC50 ± SD [11]: 17.90 ± 1.20 µg/mL |
| 220 (≈ 730 µM) | 220 (≈ 730 µM) | 220 (≈ 730 µM) | 55 (≈ 182 µM) | – | 220 (≈ 730 µM) | Cc1ccc(/C=C(/C2=NCCN2)n2ccc3ccccc32)cc1 [Compound 2b, (Z)-1-[1-(4,5-dihydro-1H-imidazol-2-yl)-2-(p-tolyl)vinyl]-1H-indole] | 12.1 ± 0.55 (≈ 40.1 µM) | 8.19 to 16.2 (≈ 27.2 to 53.8 µM) | > 220 | > 220 | > 220 | 110 (≈ 365 µM) | > 220 | 8.19 ± 0.4 (≈ 27.2 µM) | 9.69 ± 0.62 (≈ 32.2 µM) | 16.2 ± 1.2 (≈ 53.8 µM) | Inhibition (%) of AGE2-BSA/sRAGE interaction ([7]; 100 µM): devoid of activity and lack |
